Data set [1] has as its system 5TGM1 cells. In words: MTS proliferation assay, multiple myeloma cell line. The format is cell-based, rodent. To be noted: 72 hours, FIG. 3. As to the method:
In a 96-well plate, each well was prepared to contain 50 uL of 50,000 5TGM1 cells in media (HyClone IMDM Modified+4 mM L-Glu, HEPES with 10% Fetal Bovine Serum) to which was added 50 uL media containing cytarabine or compound 3 (MU004-26) that achieved the following final concentrations: 0, 0.1, 0.2, 0.5, 1, 3, 10, or 100 uM. The cells were incubated at 37° C. with 5% CO2 for 24, 48 or 72 hours (data trends similarly for all incubation periods while the 72 hour data is shown). The Promega […] based proliferation assay kit was used as per manufacturer's instructions. In short, to each well 100 uL of MTS/PMS reagent was added and allowed to incubate for approximately 2 hours at 37° C. to achieve a colorimetric indication of active cell metabolism. This was quantitated by reading the visible absorption at 415 nm. The data (FIG. 3) was normalized to the absorption range defined from minimal absorbance—media absent cells and drug present, to maximum absorbance—media with cells in the absence of drug. All points were measured in triplicate and averaged before normalization to a 0-100% range. Data was plotted (FIG. 3) as percent inhibition versus log of the compound concentration. As the FIG. 3 illustrates the Cytarabine IC50=0.5 uM while the Conjugate IC50=1 uM.

Data set [2] is described as follows: Conjugate stability in saline and growth media (HPLC). The format is physicochemical. To be noted: for stability in buffers and media: over the time course of experiments. The protocol: The rapid release of nucleoside or nucleotide from the conjugate into the growth media appeared to be ruled out. To test for this event conjugate 3 was incubated in isotonic saline, sterile media or media that was conditioned by 3 days of cell growth. In conditioned media the cells were removed from the media by centrifugation and conjugate was added to the media and incubated at 37° C. for 0.25, 24 and 72 hours. Proteins and large molecules were removed via precipitation with a 5:4:1 v:v:v mixture of Acetonitrile:methanol:1% Formic acid and subsequent centrifugation. The supernatant (100 uL injection volume) was subjected to HPLC analysis on DNA Pac PA 200 (Dionex, USA) column in a gradient of 400 mM ammonium acetate in 20% acetonitrile (3-40% over 10 minutes).

The subject of data set [3] is 22Rv1 cells. In words: MTS proliferation assay, 22Rv1 prostate cancer cells. The format is cell-based. As to the method:
(§1) In a 96-well plate, each well was prepared to contain 50 uL of 50,000 cells in media (HyClone IMDM Modified+4 mM L-Glu, HEPES with 10% Fetal Bovine Serum) to which was added 50 uL media containing either the free nucleoside (cytarabine or gemcitabine) or the conjugate (compound 3 or 16) that achieved the following final concentrations: 0, 0.1, 0.2, 0.5, 1, 3, 10, or 100 uM. The cells were incubated at 37° C. with 5% CO2 for 24, 48 or 72 hours (data trends similarly for all incubation periods while the 48 hour data is shown). The Promega MTS based proliferation assay kit (Promega; CellTiter 96® AQueous Non-Radioactive Cell Proliferation Assay (MTS)) was used as per manufacturer's instructions. In short, to each well 100 uL of MTS/PMS reagent was added and allowed to incubate for approximately 2 hours at 37° C. to achieve a colorimetric indication of active cell metabolism. This was quantitated by reading the visible absorption at 415 nm. The data (FIG. 1) was normalized to the absorption range defined from minimal absorbance (media absent cells and drug present), to maximum absorbance (media with cells in the absence of drug). All points were measured in triplicate and averaged before normalization to a 0-100% range. Data was plotted (FIG. 1) as percent inhibition versus log of the compound concentration. Where sigmodial curve fitting was possible, a four-parameter logistic non-linear regression model equation was used to generate the curves and IC50 values. […] The pulse chase experiments shown in FIG. 2 were done as described above with the one alteration that at either the 10 or 60 time point after addition of drug the media was replaced with drug-free media and the cells were allowed to continue incubation for a total of 48 hours. […] Data points were collected in quintuplicate; error bars show standard deviations. […] Sigmodial curve fitting employed a four-parameter logistic non-linear regression model equation.
On the technique in general: Tetrazolium dyes change colour on reduction, which living cells bring about.

Data set [4] deals with subcutaneous Capan-2 tumors. In words: Mouse xenograft model of pancreatic cancer. The format is in vivo. To be noted: nude mice, Capan-2 subcutaneous, 20 mg/kg 3-times per week. The protocol: FIG. 4 illustrates the conjugate of vitamin B6 and gemcitabine is efficacious in a mouse model of human pancreatic cancer. In this model, immune compromised nude mice were injected subcutaneously with the human pancreatic cell line Capan-2 (˜10^6 cells/100 ul). After tumor growth was detected the animals were randomized and either administered the isotonic saline vehicle control alone or with the gemcitabine conjugate (20 mg/kg; 3-times per week).

In data set [5] the test system is 22Rv1 cells. In words: Pulse chase (10 or 60 minute exposure) MTS proliferation assay, 22Rv1. The class given is cell-based. To be noted: 48 hours in fresh media. As to the method: as §1
This was tested for with a 10 or 60 minute pulsed exposure of 22Rv1 cells to compounds, followed by 48 hours of incubation in fresh media. […]

The subject of data set [6] is Capan2 cells. In words: Pulse chase (60 minute exposure) MTS proliferation assay, Capan2. The class given is cell-based, human. To be noted: 60 minute pulse, all concentrations tested.
In data set [7] the test system is pancreatic cell lines (Capan2, Panc1 and MiaPaca). Description: MTS proliferation assay, pancreatic cancer cell lines. The class given is cell-based. To be noted: 48 hours, FIG. 1. As to the method:
(§2) In a 96-well plate, each well was prepared to contain 50 uL of 50,000 cells in media (HyClone IMDM Modified+4 mM L-Glu, HEPES with 10% Fetal Bovine Serum) to which was added 50 uL media containing either the free nucleoside (cytarabine or gemcitabine) or the conjugate (compound 3 or 16) that achieved the following final concentrations: 0, 0.1, 0.2, 0.5, 1, 3, 10, or 100 uM. The cells were incubated at 37° C. with 5% CO2 for 24, 48 or 72 hours (data trends similarly for all incubation periods while the 48 hour data is shown). The Promega MTS based proliferation assay kit (Promega; CellTiter 96® AQueous Non-Radioactive Cell Proliferation Assay (MTS)) was used as per manufacturer's instructions. In short, to each well 100 uL of MTS/PMS reagent was added and allowed to incubate for approximately 2 hours at 37° C. to achieve a colorimetric indication of active cell metabolism. This was quantitated by reading the visible absorption at 415 nm. The data (FIG. 1) was normalized to the absorption range defined from minimal absorbance (media absent cells and drug present), to maximum absorbance (media with cells in the absence of drug). All points were measured in triplicate and averaged before normalization to a 0-100% range. Data was plotted (FIG. 1) as percent inhibition versus log of the compound concentration. […]

Data set [8] concerns PC3 prostate cancer line. In words: MTS proliferation assay, PC3 prostate cancer cells. The class given is cell-based. To be noted: 48 hours, FIG. 1. The protocol:
as §2

By IC50 is commonly meant the concentration that gives 50% inhibition. A higher IC50 goes with weaker potency in that assay.

In data set [1], `Cc1ncc(CO)c(CN[P@SP3](=O)(O)OC[C@H]2O[C@@H](n3ccc(N)nc3=O)C(O)C2O)c1O` (stereo partly drawn) [Compound 3, 5′-aracytidilic acid N-pyridoxylamide] displayed an IC50 of 1 µM. Moreover, the “release of free cytarabine or pyridoxamine (HPLC)” value in data set [2] (isotonic saline, sterile media or conditioned media, 37° C., 0.25, 24 and 72 hours) was “neither free cytarabine nor free pyridoxamine (or any other pyridoxyl based compound) was detected”. Also, the “stability in buffers and media” value in data set [2] is given as “stable”. Also, in data set [3] (48 hours, FIG. 1), the “fold more potent than araC” value is listed as above 10 fold.

On to `Cc1ncc(CO)c(CNP(=O)(O)OC[C@H]2O[C@@H](n3ccc(N)nc3=O)C(F)(F)C2O)c1O` (stereo partly drawn) [Compound 16, N-pyridoxylamide of 2′-Deoxy-2′,2′-difluoro-5′-cytidylic acid], for which the “tumor growth relative to untreated growth” value in data set [4] was “stabilized tumor growth”. In addition, in data set [5] (100 uM pulse for 60 minutes), the “decrease of proliferation beyond that of free gemcitabine” value amounted to 40%. Also, the anti-proliferation after pulse entry in data set [5] (10 minute pulse) is on record as “measurable anti-proliferation”. Further, in data set [6], the “effect of pulse compared to free Gem” value was “more rapid effect”. In addition, in data set [7], the “fold more potent than Gem alone” value is on record as 2-100 fold. Further, in data set [2], the “stability in buffers and media” value is “stable”. Also, the “fold more potent than Gem” value in data set [3] (48 hours, FIG. 1) was “up to 7 fold”.

As to `Nc1ccn([C@@H]2O[C@H](CO)[C@@H](O)[C@@H]2O)c(=O)n1` [Cytarabine, reference compound], the 50% inhibitory concentration (IC50) in data set [1] came to 0.5 µM.

Compound `Nc1ccn([C@@H]2O[C@H](CO)[C@@H](O)C2(F)F)c(=O)n1` [Gemcitabine, 2′-Deoxy-2′,2′-difluorocytidine, reference compound] displayed a stimulation of proliferation in data set [5] (100 uM pulse) of 10%. The “sensitivity to parent drug relative to conjugate” value in data set [8] is 3 fold. Also, the effect on proliferation result in data set [3] (48 hour exposure, 0.1-10 uM) is “stimulated proliferation”.

Values taken from US9334300B2, “Vitamin B6 derivatives of nucleotides, acyclonucleotides and acyclonucleoside phosphonates” (MBC PHARMA, INC., priority 2011, dated 2016).
